# Assay results as given in patent US6017947A, “Heterocyclic carbodithioperoxyimidic compounds useful for the inhibition of the replication of HIV” (priority 1999, dated 2000).
# Where “and” joins values, the source holds several entries; their conditions need not be identical. Equal entries are not always repeated.
# Key:
# [1] = test system: HIV-1(IIIB); test: Inhibition of HIV-1 induced syncytium formation in CEM cells, HIV-1(IIIB) (WT); assay type: cell-based; conditions: day 4 post infection
# Source text: Cells and Viruses CEM cells were obtained from the […] (Rockville, Md.). HIV-l(IIIB) was originally obtained from the culture supernatant of persistently HIV-1-infected H9 cells and was provided by R. C. Gallo and M. Popovic (National Cancer Institute, National Institutes of Health, Bethesda, Md.).
# (§1) CEM cells were suspended at ≈300,000 cells per ml of culture medium and infected with approximately 100 CCID50 (CCID50 being the 50% cell culture infective dose) of HIV-1(IIIB) (designated as "WT" in Table 3) or one of the HIV-1 RT mutant strains described above. Then 100 μl of the infected cell suspensions was added to 200 μl microtiter plate wells containing 100 μl of appropriate serial (5-fold) dilutions of the test compounds. The inhibitiory effect of the test compounds on HIV-1 induced syncytium formation in CEM cells was examined microscopically on day 4 post infection. The 50% effective concentration (EC50) was defined as the test compound concentration that inhibits syncytium formation in the HIV-1-infected cell cultures by 50%.
# [2] = test system: HIV-1/Lys-138; test: Inhibition of HIV-1 induced syncytium formation in CEM cells, RT mutant 138-Lys; assay type: cell-based; conditions: Human immunodeficiency virus 1, CCRF-CEM, 96 h
# Source text: (§2) The selection and characterization of the HIV-1 RT mutant strains were done as follows: HIV-1/100-Ile ("100-Ile") was selected for resistance against TIBO R82150 as described in Balzarini et al, Virology 192: 246-253 (1993); HIV-1/103-Asn ("103-Asn") was selected for resistance against TIBO R82913 as described in Balzarini et al, Virology 192: 246-253 (1993); HIV-1/106-Ala ("106-Ala") was selected for resistance against nevirapine as described in Balzarini et al, J. Virol. 67: 5353-5359 (1993); HIV-1/Lys-138 ("ys-138") was selected for resistance against TSAO-m^3 T as described in Balzarini et al, Virology 192: 246-253 (1993) and Balzarini et al, Proc. Nat. Acad. Sci. USA 90: 6952-6956 (1993); HIV-1/181-Cys ("181-Cys") was selected for resistance against pyridinone L-697,661 as described in Balzarini et al, Virology 192: 246-253 (1993); and HIV-1/188-His ("188-His") was selected for resistance against HEPT as described in Balzarini et al, Mol. Pharmocol. 44: 694-701 (1993). 188-His was then further converted to HIV-1/188-Leu("188-Leu") upon further passage in cell culture in the absence of the HEPT. HIV-1/101-Glu ("101-Glu") and HIV-1/190-Glu ("190-Glu") were selected for resistance against the thiocarboxanilide derivative designated as UC38 as described in Balzarini et al, Antiviral Research 27: 219-236 (1995). HIV-1/184-Ile ("184-Ile") was selected for resistance against the combination of 3TC and TSAO-m^3 T as described in Balzarini et al, Molecular Pharm. 49: 882-890 (1996). HIV-1/184-Val ("184-Val") was selected for resistance against 3TC as described in Balzarini et al, Molecular Pharm. 49: 882-890 (1996).
# as §1
# [3] = test system: HIV-1/190-Glu; test: Inhibition of HIV-1 induced syncytium formation in CEM cells, RT mutant 190-Glu; assay type: cell-based; conditions: Human immunodeficiency virus 1, CCRF-CEM, 96 h
# Source text: as §2, §1
# [4] = test system: HIV-1/188-Leu; test: Inhibition of HIV-1 induced syncytium formation in CEM cells, RT mutant 188-Leu; assay type: cell-based; conditions: Human immunodeficiency virus 1, CCRF-CEM, 96 h
# Source text: as §2, §1
# [5] = test system: HIV-1/188-His; test: Inhibition of HIV-1 induced syncytium formation in CEM cells, RT mutant 188-His; assay type: cell-based; conditions: Human immunodeficiency virus 1, CCRF-CEM, 96 h
# Source text: as §2, §1
# [6] = test system: HIV-1/103-Asn; test: Inhibition of HIV-1 induced syncytium formation in CEM cells, RT mutant 103-Asn; assay type: cell-based; conditions: Human immunodeficiency virus 1, CCRF-CEM, 96 h
# Source text: as §2, §1
# [7] = test system: HIV-1/101-Glu; test: Inhibition of HIV-1 induced syncytium formation in CEM cells, RT mutant 101-Glu; assay type: cell-based; conditions: Human immunodeficiency virus 1, CCRF-CEM, 96 h
# Source text: as §2, §1
# [8] = test system: HIV-1/100-Ile; test: Inhibition of HIV-1 induced syncytium formation in CEM cells, RT mutant 100-Ile; assay type: cell-based; conditions: Human immunodeficiency virus 1, CCRF-CEM, 96 h
# Source text: as §2, §1
# [9] = test system: HIV-1/184-Val; test: Inhibition of HIV-1 induced syncytium formation in CEM cells, RT mutant 184-Val; assay type: cell-based; conditions: Human immunodeficiency virus 1, CCRF-CEM, 96 h
# Source text: as §2, §1
# [10] = test system: HIV-1/181-Cys; test: Inhibition of HIV-1 induced syncytium formation in CEM cells, RT mutant 181-Cys; assay type: cell-based; conditions: Human immunodeficiency virus 1, CCRF-CEM, 96 h
# Source text: as §2, §1
# [11] = test system: HIV-1/106-Ala; test: Inhibition of HIV-1 induced syncytium formation in CEM cells, RT mutant 106-Ala; assay type: cell-based; conditions: Human immunodeficiency virus 1, CCRF-CEM, 96 h
# Source text: as §2, §1
# [12] = test system: HIV-1/184-Ile; test: Inhibition of HIV-1 induced syncytium formation in CEM cells, RT mutant 184-Ile; assay type: cell-based; conditions: Human immunodeficiency virus 1, CCRF-CEM, 96 h
# Source text: as §2, §1
# [13] = test system: HIV-1 strains containing the 100 Leu→Ile mutation in their RT; conditions: cited from earlier work
# [14] = test system: 181 Tyr→Cys mutation in the RT of HIV-1 strains; conditions: cited from earlier work
# [15] = Table 2, HIV-1(IIIB), repeat values
# [16] = Human immunodeficiency virus 1, IIIB, CCRF-CEM, 96 h, Table 2, HIV-1(IIIB), repeat values
# [17] = Human immunodeficiency virus 1, IIIB, CCRF-CEM, 96 h, Table 3, WT (HIV-1(IIIB))
Structure (SMILES),"EC50 [1, 15]",EC50 [2] [µg/mL],EC50 [3] [µg/mL],EC50 [4] [µg/mL],EC50 [5] [µg/mL],EC50 [6] [µg/mL],EC50 [7] [µg/mL],EC50 [8] [µg/mL],EC50 [9] [µg/mL],EC50 [10] [µg/mL],EC50 [11] [µg/mL],EC50 [12] [µg/mL],"EC50 [1, 16] [nM]","EC50 [1, 17] [µg/mL]",resistance of the mutant strain to the compound [13],resistance of the mutant strain to the compound [14]
"CSSC(=Nc1ccc(Cl)c(OCCC(C)C)c1)c1ccsc1C [Compound 1, N-[4-chloro-3-(3-methylbutoxy)-phenyl]-2-methyl-3-thiophenecarbodithioperoxyimidic acid methyl ester]",104 nM and 186 nM,–,–,–,–,–,–,–,–,–,–,–,–,–,–,–
CSSC(=Nc1ccc(Cl)c(C=NOC(C)(C)C)c1)c1ccoc1C [Compound 3],121 nM,0.1,> 2,1.35,0.8,1.33,0.14,0.47,0.12,0.1,0.18,0.03,128,0.018,–,–
CSSC(=Nc1ccc(Cl)c(OCC=C(C)C)c1)c1ccoc1C [Compound 4],–,0.008,> 2,0.58,0.85,0.15,0.027,0.053,0.0015,0.08,0.018,0.0032,–,0.0018,–,–
"CSSC(=Nc1ccc(Cl)c(C=NOC(C)C)c1)c1ccoc1C [Compound 5, N-[4-chloro-3-[[(1-methylethoxy)imino]-methyl]phenyl]-2-methyl-3-furancarbodithioperoxyimidic acid methyl ester]",43.1 nM,0.1,> 2,0.95,0.7,0.85,0.13,0.25,0.0075,0.18,0.1,0.013,73.2,0.0075,–,–
CSSC(=Nc1ccc(Cl)c(OCCC(C)C)c1)c1ccoc1C [Compound 6],80.4 nM,0.15,> 2,> 2,≥ 2,0.65,0.13,0.25,0.008,0.29,0.13,0.02,83.7,0.012,–,–
CSSC(=Nc1ccc(Cl)c(COc2ccccc2Cl)c1)c1ccoc1C [Compound 7],53.3 nM,0.13,> 2,0.7,0.65,≥ 2,0.34,0.93,0.009,0.47,0.55,0.02,48.6,0.0075,–,–
Cc1occc1C(=Nc1ccc(Cl)c(C=NOC(C)(C)C)c1)SSc1ccccc1 [Compound 8],83.2 nM,0.18,> 2,> 2,≥ 2,≥ 2,0.2,0.65,0.018,0.23,0.7,0.03,156,0.03,–,–
"CSSC(=Nc1ccc(Cl)c(OCC=C(C)C)c1)c1cc(C)oc1C [Compound 9, N-[4-chloro-3-[(3-methyl-2-butenyl)oxy]phenyl]-2,5-dimethyl-3-furancarbodithioperoxyimidic acid methyl ester]",66.9 nM,0.09,> 2,≥ 2,≥ 2,≥ 2,0.28,≥ 2,0.009,0.7,0.2,0.05,65,0.0097,–,–
CC(C)=CCOc1cc(N=C(SSc2ccccc2)c2ccoc2C)ccc1Cl [Compound 10],–,0.23,> 2,> 2,≥ 2,≥ 2,0.2,1.5,0.053,≥ 2,0.5,0.09,–,0.05,–,–
CC(C)=CCOc1cc(N=C(SN2CCOCC2)c2ccoc2C)ccc1Cl [Compound 11],12.4 nM,–,–,–,–,–,–,–,–,–,–,–,16.3,–,–,–
CC(C)=CCN1Cc2cccc3[nH]c(=S)n(c23)C[C@@H]1C [Compound R82150],–,–,–,–,–,–,–,–,–,–,–,–,–,–,resistant,–
CC(C)=CCN1Cc2cc(Cl)cc3[nH]c(=S)n(c23)C[C@@H]1C [TIBO R82913],–,–,–,–,–,–,–,–,–,–,–,–,–,–,resistant,–
Cc1ccnc2c1NC(=O)c1cccnc1N2C1CC1 [nevirapine],–,–,–,–,–,–,–,–,–,–,–,–,–,–,–,resistant
